Like-named read-outs stand apart in the source and are kept apart here. Residues, ends and D or L forms follow the SMILES beside them. *: point of attachment. Cbz = O=C(OCc1ccccc1)*; CH2F = FC*
What was measured:
Nrf1 [1] = test: Confocal imaging of Nrf1 localization in Nrf1 overexpressing HEK cells; format: cell-based, Human
Excerpt: We further used confocal microscopy to visualize the localization of Nrf1 in MEFs and Nrf1 overexpressing HEK cells before and after treatment with carfilzomib (FIGS. 2B and C). In absence of carfilzomib Wt and NGly1^−/− MEFs show Nrf1 (in white) in low abundance and mainly in the cytosol (FIG. 2B). After treating the cells with carfilzomib for several hours, wt MEFs show Nrf1 in the nucleus whereas NGly1^−/− MEFs only show a higher abundance of Nrf1 in the cytosol. […] Untreated cells show Nrf1 mainly in the cytosol around the ER. […] Taking all the results in account we conclude that functioning NGly1 is required to activate Nrf1.
Immunofluorescence followed by confocal imaging. MEFs and Nrf-3× Flag overexpressing HEK cells were grown to 80% confluency on cover slips. Cells were treated with NGLy1-, caspase-, and proteasome inhibitors as indicated and allowed to recover in fresh media for one hour before cells were fixed using 100% ice cold methanol. Cells were treated with a primary rabbit monoclonal antibody raised against the N-terminus of Nrf1 (D5B10, Cell Signaling) and a secondary polyclonal Alexa Fluor0647 AffiniPure Fab Fragment Goat Anti-Rabbit IgG (H+L) (Jackson Immuno Research). […] Images were analyzed using Imaris analysis software (version). […]

MEF cells = test: Viability of MEF NGly1-/- versus MEF WT with carfilzomib (WST-1); format: cell-based, Mouse; conditions: 24 h incubation, doses 5-100 nM
K562 cells = test: Carfilzomib sensitivity of CRISPRi-knockdown K562 cell lines; format: cell-based
Procedure: Carfilzomib sensitivity of CRISPRi-knockdown k562 cell lines. Carfilzomib dissolved in DMSO at a concentration of 10 mM was used freshly or stored at −80° C. for no longer than a month without repeated freeze-thaw cycles. K562 cells were seeded at a density of 0.2 million cells/ml in 100 μl of RPMI medium in each well of a 96-well plate for 18 hours before treatment. The next day, serial-diluted Carfilzomib or DMSO was added to the cells with a final concentration of DMSO of 0.1% (v/v) in each well. After 48 hours of incubation at 37° C., the plate was retrieved and stained with a calcein-based LIVE/DEAD® Viability/Cytotoxicity Kit (Thermo Fisher Scientific), according to the manufacturer's instruction. The cells were then counted on an Accuri C6 flow cytometer (BD Biosciences, CA, USA). A total of 10,000 events was collected for each well. The viability was calculated as the percent of calcein-positive cells in each Carfilzomib-treated sample, normalized to that of the DMSO-treated vehicle control.

Nrf1 [2] = test: 3xPSMA4-ARE dual luciferase reporter assay in MEFs; format: cell-based, Mouse; conditions: 12 hour incubation
Excerpt: According to the theory the active form (p110) of Nrf1 that translocates to the nucleus and activates proteasome genes, is produced upon removal of the N-glycans. Using a construct in which three copies of the antioxidant respond element (ARE) of the human PSMA4 gene were inserted upstream of a SV40 promoter that drives the expression of firefly luciferase in a dual luciferase reporter assay, where plasmids expressing renilla luciferase were used as internal transfection control, we compared the reporter activity in NGly1^−/− MEFs and Wt MEFs after treatment with carfilzomib.
(§1) Luciferase Assays. The construct 3xPSMA4-ARE-Luc (RDB-2415; a kind gift from Senthil Radhakrishnan, Virginia Commonwealth University) was described previously. Briefly, an oligo (5′-[…] […] […] […] […] […] […]-3′) (SEQ ID NO: 10) containing three copies of a putative ARE (shown in uppercase) derived from the first intron of the human PSMA4 gene was annealed to its corresponding reverse-complement oligo and cloned into pGL3-promoter vector (Promega). The promoter reporter was generated by inserting this construct upstream of a minimal SV40 promoter, driving the expression of a firefly luciferase.
Cells were transiently transfected with the firefly (promoter reporters) and renilla luciferase (pRL-TK; Promega) constructs along with effector plasmid as required. […]

Proteasome = conditions: blood and PBMCs, cited from earlier work
NGly1 [3] = molecular target: T1, NGly1 (Homo sapiens, UniProt Q96IV0); test: Gel shift of RNAse B exposed to recombinant Ngly1; format: biochemical; conditions: gel electrophoresis, in the presence of the compound
T1 sequence (Q96IV0 1-654): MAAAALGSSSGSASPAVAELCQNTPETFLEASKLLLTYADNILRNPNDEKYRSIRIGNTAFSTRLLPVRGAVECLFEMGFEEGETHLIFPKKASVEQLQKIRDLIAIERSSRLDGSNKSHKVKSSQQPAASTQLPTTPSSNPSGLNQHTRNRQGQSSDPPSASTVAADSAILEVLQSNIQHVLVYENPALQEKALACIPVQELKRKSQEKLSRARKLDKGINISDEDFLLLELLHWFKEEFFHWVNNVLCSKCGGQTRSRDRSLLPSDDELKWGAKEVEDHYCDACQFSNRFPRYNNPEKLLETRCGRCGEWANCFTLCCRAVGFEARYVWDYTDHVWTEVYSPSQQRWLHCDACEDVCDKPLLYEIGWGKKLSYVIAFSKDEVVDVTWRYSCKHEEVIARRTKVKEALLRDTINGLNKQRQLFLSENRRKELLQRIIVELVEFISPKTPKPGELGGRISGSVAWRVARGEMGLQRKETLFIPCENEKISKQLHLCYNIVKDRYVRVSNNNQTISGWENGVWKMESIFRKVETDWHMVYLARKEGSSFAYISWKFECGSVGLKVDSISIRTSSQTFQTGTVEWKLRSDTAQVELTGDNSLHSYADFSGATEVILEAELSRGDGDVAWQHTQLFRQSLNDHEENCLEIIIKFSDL
Excerpt: To detect direct inhibition of NGly1 by WRR139, the mass shift of RNAse B exposed to recombinant Ngly1 was observed by gel electrophoresis. In the presence of Ngly1, RNAse B was fully converted from its glycosylated band at pXXX to a deglycosylated protein at pXXX (FIG. 4D).

Nrf1 [4] = test: Immunoblot of Nrf1 processing in Nrf1 overexpressing HEK cells; format: cell-based, Human; conditions: compound before carfilzomib
Excerpt: In a second attempt, we used Nrf1 overexpressing HEK cells and applied the small molecule Z-VAD-fmk (FIG. 1B) to inhibit NGly1 before treating the cells with carfilzomib. […] The higher abundance of the p120 band indicates the existence of the N-glycosylated form of Nrf1 as the main species in cells treated with Z-VAD-fmk. […] Thus, the incorrect processing of Nrf1 that we observed in cells treated with Z-VAD-fmk results from inhibition of NGly1 and not from caspase inhibition.
Nrf-3× Flag overexpressing HEK cells (RDB-2867; a kind gift from Senthil Radhakrishnan, Virginia Commonwealth University) were obtained by cloning Human Nrf1 coding region along with a C-terminal 3× Flag sequence into pcDNA3.1+ (Invitrogen, Carlsbad, Calif.). Cells were grown in Dulbecco's modified Eagle's medium (DMEM) supplemented with 10% fetal bovine serum (Clontech Laboratories), penicillin, and streptomycin (Fisher Scientific) at 37° C. in 5% CO2.
Immunoblot Analysis. Cells were lysed in RIPA buffer (50 mM Tris [pH 7.4], 150 mM NaCl, 1% NP40, 1% Na. Deoxycholate, 0.1% SDS, and 1 mM EDTA) supplemented with protease and phosphatase inhibitor cocktail (Pierce). For detecting Nrf1 a rabbit monoclonal antibody raised against the N terminus (D5B10, Cell Signaling) was used. Other immunoblots were performed with antibodies specific for Flag tag (Sigma-Aldrich) and β-actin (Cell Signaling).

[5] = test system: multiple myeloma cell lines; test: Potentiation of proteasome inhibition in multiple myeloma cell lines; format: cell-based
Excerpt: Considering the effect of NGly1 KO or knockdown for proteasome inhibitor potentiation, we hoped to find the same effect through the use of a small molecule inhibitor of NGly1. Attempts to use Z-VAD-fmk to potentiate proteasome inhibition in multiple myeloma cell lines were unsuccessful, possibly due to its activity as a potent pan-caspase inhibitor.

NGly1 [6] = molecular target: T1, NGly1; test: Cresswell assay (ddVenus fluorescence on deglycosylation by NGly1) in stably transfected K562 cells; format: cell-based; set-up: endogenous in cells; host or cells: K562 cells stably transfected with the ddVenus reporter; conditions: for IC50: K562 ddVenus cells, read-out: IC50 (reduction of fluorescence)
Excerpt: The assay used was a modified version of the fluorimetric assay first described by the Cresswell lab in 2011. Prepared by the Steinmetz lab, a stably transfected K562 cell line was used. Mutated to misfold and contain a site for N-glycosylation, the expressed ddVenus would only properly fold, and thus fluoresce, upon deglycosylation by NGly1 and concurrent conversion of the glycosylated asparagine residue to aspartic acid (FIG. 4A). Thus inhibition of NGly1 would not activate fluorescence in this assay. With this method a library of about 600 cysteine-protease inhibitor-like compounds were screened. Six hits were found, all of which were peptide-derived structures with an electrophilic warhead consisting of either a vinyl sulfone or epoxyketone (FIG. 4B).
Screen of ˜600 compounds with the Cresswell Assay. Screens were performed clear, V-bottom 96-well plates. Plates were prepared with negative control 2 μL DMSO (A1) and positive control 1 μL DMSO+1 μL 10 mM Z-VAD-fmk (final conc. 100 uM Z-VAD-fmk; A12-H12). Wells A2-A11 contained 1 μL DMSO, the remaining wells contained 1 μL of 1 mM stocks of compounds from the library.
100 μL of suspended K562 ddVenus cells were added to the plate at 1×10^6 cells/mL. Wells A1-A12 contained cells in growth media. The remaining wells contained cells in growth media supplemented 100 uM carfilzomib.
The mean of fluorescence in FL1 was plotted for each well.
Z-factor for the assay ranged between 0.38-0.85.

Nrf1 [7] = test: 3xPSMA4-ARE dual luciferase reporter assay in Nrf1 overexpressing HEK cells; format: cell-based, Human; conditions: compound prior to carfilzomib
Procedure: The same experiment was performed in Nrf1 overexpressing HEK cells in which NGly1 was inhibited by Z-VAD-fmk prior to incubation with carfilzomib. The caspase inhibitor QVD-OPh served as control to out rule that observed effect resulted from caspase inhibition.
as §1
Cells were transiently transfected with the firefly (promoter reporters) and renilla luciferase (pRL-TK; Promega) constructs along with effector plasmid as required. Cells were treated with compoubds or vehicle control for 12 hours. Afterwards cells were lysed in the luciferase assays were performed using the dual luciferase reporter assay system (E1910; Promega) according to the instructions from the manufacturer. The firefly luciferase activity was normalized to renilla luciferase activity for all experiments.

[8] = patients; cited from earlier work
caspases 3/7 = test: Caspase 3/7 inhibition assay (Caspase-Glo, staurosporine-induced U266 cells); format: cell-based; conditions: staurosporine 1 μM, 8 hours
Procedure: We were further interested to see whether this molecule would also hit caspases, similar to the known Ngly1 inhibitor Z-VAD-fmk. […] Inhibition of caspases 3/7 was not observed until a concentration of about 10 μM was reached. In addition, the relative activity was not lowered below the range observed by induced apoptosis
Caspase 3/7 inhibition assay. 1 million U266 cells were suspended in 10 mL RPMI 15% BSA+PS, and plated into a flat-bottom, white-walled 96-well plate (100 μL per well). The plate was incubated at 37° C. overnight. The following day, cells were treated with staurosporine (apoptosis inducer, final concentration 1 μM), WRR139 or Z-VAD-fmk (at final concentrations shown) or DMSO to a final concentration of 2% DMSO (v/v) respectively. The plate was incubated for 8 hours at 37° C. Caspase-Glo kit reagent (company details) was prepared as per instruction from the manufacturer and after equilibration to 23° C. […] of the reagent was added to each well. […] Caspase inhibition was calculated by subtracting background (signal from media containing no cells) and comparison to signal from cells with induced apoptosis (staurosporine only).

Procedure for H929 cells: Cell survival experiments using the Cell Titer-Glo 2.0 assay were performed in opaque white flat-bottomed 96-well plates. The cells (1.0-2.0×10^4 in 100 μL fresh media) were treated under the desired conditions and incubated for 24 or 48 h before addition of 100 μL assay reagent. Viability was calculated as percent signal compared to vehicle treated cells. Regression analysis and IC50 calculations were performed with GraphPad Prism 7.0.
U266 and H929: U266 or H929 cells were seeded at a density of 0.1 million cells/mL in RPMI medium (100 μL per well). The following day, carfilzomib, DMSO, or WRR139 were added in DMSO to final concentrations as shown for a maximum final concentration of 1% DMSO (v/v). After 48 h of incubation at 37° C. with 5% CO2, the plate was retrieved and treated with the Cell Titer-Glo 2.0 assay. After 10 minutes incubation the plate was analyzed by measuring the luminescence using a Spectra max®i3x (VWR, Australia) plate reader.

CC(C)C[C@H](NC(=O)[C@H](CCc1ccccc1)NC(=O)CN1CCOCC1)C(=O)N[C@@H](Cc1ccccc1)C(=O)N[C@@H](CC(C)C)C(=O)[C@@]1(C)CO1 [carfilzomib]
localization of Nrf1 (Nrf1 [1]; carfilzomib alone): the majority of Nrf1 was observed in the nucleus
sensitivity of NGly1-/- cells relative to MEF WT (MEF cells): over 2 fold
LD50 (K562 cells; K562, dCAS9 knockdowns of Nrf1 or NGly1 (sgNrf1-A, sgNrf1-B, sgNGly1)): 20 nM
LD50 (K562 cells; K562, no sgRNA or control sgRNA): 40 nM
reporter (PSM) activity (Nrf1 [2]; NGly1-/- MEFs): no response
reporter (PSM) activity (Nrf1 [2]; Wt MEFs): increase in PSM activity
inhibition of proteasome activity (Proteasome; 15 mg/m^2, after the first dose): > 75%
inhibition of proteasome activity (Proteasome; after five doses): > 90%

COC(=O)C[C@H](NC(=O)[C@H](C)NC(=O)[C@@H](NC(=O)OCc1ccccc1)C(C)C)C(=O)CF [Z-VAD-fmk, carbobenzoxy-valyl-alanyl-aspartyl-[O-methyl]-fluoromethylketone] (Cbz-Val-Ala-Asp(OMe)-CH2F)
deglycosylation of RNAse B by recombinant Ngly1 (NGly1 [3]): only the original band remains, with no conversion to the deglycosylated form
localization of Nrf1 (Nrf1 [1]; compound prior to incubation with carfilzomib): high abundance of Nrf1 in the cytosol
Nrf1 processing (p120/p110 bands) (Nrf1 [4]): abnormal processing of Nrf1
potentiation of proteasome inhibition [5]: unsuccessful
IC50 (NGly1 [6]): 4.4 µM
reporter activity (Nrf1 [7]): did not show an increased reporter activity

CC(C)C[C@H](NC(=O)[C@H](Cc1ccccc1)NC(=O)c1cnccn1)B(O)O [bortezomib]
incidence of neuropathy [8]: 30-60%

Cc1ccc(S(=O)(=O)/C=C/C(=O)N[C@@H](CCc2ccccc2)C(=O)NCCC(C)C)cc1 [WRR139]
concentration at which inhibition of caspases 3/7 is first observed (caspases 3/7): about 10 μM
deglycosylation of RNAse B by recombinant Ngly1 (NGly1 [3]): only the original band remains, with no conversion to the deglycosylated form
increase in killing / reduction of LD50 of carfilzomib (H929 cells; H929, WRR139 plus carfilzomib vs carfilzomib alone): 2 fold
cell survival, co-inhibition with carfilzomib compared to carfilzomib alone (H929 cells; H929, after 24 hours): significantly decreased cell survival
NGly1 inhibition in validation of the hits (NGly1 [6]; FIG. 4C): inhibit NGly1 in a dose-dependent manner
IC50 (NGly1 [6]): 5.5 µM
increase in killing / reduction of LD50 of carfilzomib (U266 cells; U266, WRR139 plus carfilzomib vs carfilzomib alone): 2.6 fold
cell survival, co-inhibition with carfilzomib compared to carfilzomib alone (U266 cells; U266, after 24 hours): significantly decreased cell survival
